Reference: patent publication US12583871B2, “PRMT5 inhibitors” (MERCK SHARP & DOHME LLC, priority 2019, dated 2026)
Where two headings read alike, the source gives them in different places.

Legend:
[1] = biological target: T1, PRMT5-MEP50 enzyme complex (Homo sapiens, UniProt O14744); assay: PRMT5-MEP50 Enzyme Methylation Assay; format: biochemical; conditions: recombinant FL-PRMT5-MEP50, biotinylated H4R3(Me1) peptide, 15 μM SAM
T1 construct: 1.25 nM of Full-length (FL)-PRMT5-MEP50 enzyme complex; made in house; host or cells: baculovirus-transfected Sf21 cells
T1 sequence (O14744 whole entry): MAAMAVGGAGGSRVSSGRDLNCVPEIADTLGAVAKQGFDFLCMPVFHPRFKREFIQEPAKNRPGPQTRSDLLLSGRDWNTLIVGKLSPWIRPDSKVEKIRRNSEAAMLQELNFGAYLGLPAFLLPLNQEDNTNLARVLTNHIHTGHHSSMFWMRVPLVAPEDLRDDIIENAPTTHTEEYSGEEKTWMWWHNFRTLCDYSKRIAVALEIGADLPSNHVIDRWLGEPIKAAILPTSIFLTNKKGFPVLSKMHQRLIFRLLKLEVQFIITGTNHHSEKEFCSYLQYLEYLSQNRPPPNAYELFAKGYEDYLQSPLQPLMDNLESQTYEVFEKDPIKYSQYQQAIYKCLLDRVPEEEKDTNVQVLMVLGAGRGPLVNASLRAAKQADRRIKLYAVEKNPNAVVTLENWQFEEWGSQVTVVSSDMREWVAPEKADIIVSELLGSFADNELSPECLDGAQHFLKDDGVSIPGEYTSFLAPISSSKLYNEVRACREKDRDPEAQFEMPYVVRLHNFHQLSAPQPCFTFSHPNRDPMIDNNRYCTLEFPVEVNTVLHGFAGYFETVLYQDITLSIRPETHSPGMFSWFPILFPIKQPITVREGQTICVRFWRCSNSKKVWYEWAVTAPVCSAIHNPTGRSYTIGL
T1 sequence (Q9BQA1 whole entry partner): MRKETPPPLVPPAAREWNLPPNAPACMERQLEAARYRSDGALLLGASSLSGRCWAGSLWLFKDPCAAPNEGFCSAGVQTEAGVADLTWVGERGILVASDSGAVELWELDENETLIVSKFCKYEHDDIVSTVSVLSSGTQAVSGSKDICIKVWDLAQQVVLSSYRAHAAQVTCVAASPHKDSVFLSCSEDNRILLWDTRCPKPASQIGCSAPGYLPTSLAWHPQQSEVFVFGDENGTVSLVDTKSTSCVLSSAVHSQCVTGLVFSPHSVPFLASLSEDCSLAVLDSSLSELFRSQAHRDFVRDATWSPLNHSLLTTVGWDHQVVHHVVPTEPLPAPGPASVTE
Description: PRMT5-MEP50 Enzyme Methylation Assay
PRMT5-MEP50 biochemical assay is a direct measurement of the methylation activity of the enzyme complex on a short peptide substrate derived from the N-terminus of H4 histone. Methylation experiment was performed with recombinant PRMT5-MEP50 protein complex. The assessment of inhibitory effect of small molecules was measured by the effectiveness of the compounds to inhibit this reaction (EC50).
In this assay, the potency (EC50) of each compound was determined from a twenty-point (1:2 serial dilution; top compound concentration of 100000 nM) titration curve using the following outlined procedure. To each well of a white ProxiPlus 384 well-plate, 100 nL of compound (1% DMSO in final assay volume of 10 μL) was dispensed, followed by the addition of 8 μL of 1× assay buffer (50 mM Bicine pH 8.0, 1 mM DTT, 0.004% Tween20, 0.01% BSA) containing 1.25 nM of Full-length (FL)-PRMT5-MEP50 enzyme complex (recombinant proteins from baculovirus-transfected Sf21 cells: FL-PRMT5; MW=[…] and FL-MEP50; MW=38614) and 1 μL of 150 μM S-(5′-Adenosyl)-L-Methionine Chloride (SAM). Plates were sealed and placed in a 37° C. humidified chamber for a 60 minutes pre-incubation with compound. Subsequently, each reaction was initiated by the addition of 1 μL 1× assay buffer containing 750 nM biotinylated H4R3(Me1) peptide. The final reaction in each well of 10 μL consists of 1.0 nM PRMT5-MEP50, 75 nM biotinylated-peptide, and 15 μM SAM. Methylation reactions were allowed to proceed for 150 minutes in a sealed plate at 37° C. Reactions were immediately quenched by the addition of 1 μL of 5% formic acid. Plates were then frozen and shipped to SAMDI™ Tech Inc. to determine the percent conversion from H4R3(Me1) to H4R3(Me2). Dose-response curves were generated by plotting percent effect (% product conversion; Y-axis) vs. Log 10 compound concentrations (X-axis). EC50 values were determined by non-linear regression according to models for sigmoidal (4 parameters) dose-response curves.

[2] = biological target: T2, PRMT5 (symmetric dimethylation of arginine (SDMA) of PRMT5 substrates) in MCF-7 cells (Homo sapiens, UniProt O14744); assay: PRMT5 Cell Target Engagement (TE) Assay; format: cell-based; conditions: 3 days treatment, nuclear SDMA by high content imaging
T2 construct: endogenous in cells; host or cells: MCF-7 cells
T2 sequence (O14744 whole entry): as the sequence (O14744 whole entry) above
T2 sequence (Q9BQA1 whole entry partner): as the sequence (Q9BQA1 whole entry partner) above
Source text: PRMT5 Cell Target Engagement (TE) Assay
The PRMT5 TE assay is a biomarker assay for identifying compounds that inhibit symmetric dimethylation of arginine (SDMA) of PRMT5 substrates. The following substrates have been reported for PRMT5: histone H2A and H4 R3, Histone H3 R2, Histone H3 R8, spliceosome Sm proteins, ribosomal protein RPS10, p53, FEN1, nucleoplasmin, nucleolin, EGFR and EBNA. The assay focuses on detecting symmetrically dimethylated nuclear proteins using high content imaging technology. Detection of the expression of symmetrically dimethylated nuclear proteins is through a mixture of primary rabbit monoclonal antibodies to SDMA (CST 13222), which in turn recognized by an Alexafluor 488 dye-conjugated anti-rabbit IgG secondary antibody. The IN Cell Analyzer 2200 or Opera-Phenix measures nuclear Alexafluor 488 fluorescent dye intensity that is directly related to the level of expression of symmetrically dimethylated nuclear proteins at the single cell level. Nuclear AF488 dye intensities are compared to the mean value for DMSO treated cells (MIN) to report percent of inhibition for each compound-treated well.
In this assay, the cell potency (EC50) of each compound was determined from a ten point (1:3 serial dilution; top compound concentration of 10000 nM) titration curve using the following outlined procedure. Each well of a BD falcon collagen coated black/clear bottom 384-well plate was seeded with 4000 MCF-7 cells in 30 μl media and allowed to attach for 5 h. Media is ATCC-formulated Eagle's Minimum Essential Medium, Catalog No. 30-2003. To make the complete growth medium, the following components were added to the base medium: 0.01 mg/mL human recombinant insulin; fetal bovine serum to a final concentration of 10%. Additional 30 μl of media containing 2× compounds were added to each well. Cells were treated for 3 days in 37° C. CO2 incubator. On day 3, cells were fixed with Cytofix, permeablized with 0.4% Triton-X-100/Cytofix, and washed with D-PBS without Ca/Mg. Cells were blocked with Licor Odessey blocking reagent for 1 h at room temperature, followed by incubation with anti-SDMA (1:1000) antibody at 4° C. overnight. 1° antibody was removed, followed by three washings with DPBS without Ca/Mg and 0.05% Tween20. Hoechst (5 μg/mL), Cell Mask deep stain (1:2000) and Alexa488-conjugated goat anti-rabbit IgG (2 μg/mL) was added for 1 h at room temperature. A final washing step (three washes) was performed before sealing plate for imaging on In Cell Analyzer 2200 or Opera-Phenix. Images from analyzer were uploaded to Columbus (at WP or BOS) for image analysis. IC50 values were determined by 4 parameters robust fit of percent fluorescence units vs. (Log10) compound concentrations.

[3] = only EC50 (4 parameters single site sigmoidal model) or first EC50 of 7 parameters biphasic model, read-out: Enzyme Methylation Assay (EC50)
[4] = second EC50 of 7 parameters biphasic model, read-out: Enzyme Methylation Assay (EC50, nM), second EC50

| Structure (SMILES) | EC50 [1, 3] | EC50 [1, 4] | EC50 [2] |
| --- | --- | --- | --- |
| CO[C@@H](C)c1cc(Br)cn2cc(C(=O)N3CC[C@]4(Cc5ccccc5CN4)[C@H](O)C3)nc12 (single isomer, unassigned) [Example 2] | 0.369 nM | 114 nM | 2.11 nM |
| CO[C@H](C)c1cc(Br)cn2cc(C(=O)N3CC[C@]4(Cc5ccccc5CN4)[C@H](O)C3)nc12 (single isomer, unassigned) [Example 3] | 0.581 nM | – | 1.57 nM |
| COCc1cc(C(F)(F)F)cn2cc(C(=O)N3CC[C@]4(Cc5ccccc5CN4)[C@H](O)C3)nc12 [Example 1, ((3R,3′R)-3′-hydroxy-1,4-dihydro-1′H,2H-spiro[isoquinoline-3,4′-piperidin]-1′-yl)[8-(methoxymethyl)-6-(trifluoromethyl)imidazo[1,2-a]pyridin-2-yl]methanone] | 0.525 nM | 224 nM | 6.23 nM |
| Cc1nc2nc(C(=O)N3CC[C@]4(Cc5ccccc5CN4)[C@H](O)C3)cn2cc1Br [Example 4, (6-bromo-7-methylimidazo[1,2-a]pyrimidin-2-yl)[(3R,3′R)-3′-hydroxy-1,4-dihydro-1′H,2H-spiro[isoquinoline-3,4′-piperidin]-1′-yl]methanone] | 0.652 nM | 280 nM | 14 nM |
| O=C(c1cn2cc(C3CC3)cnc2n1)N1CC[C@]2(Cc3ccccc3CN2)[C@H](O)C1 [Example 5, (6-cyclopropylimidazo[1,2-a]pyrimidin-2-yl)[(3R,3′R)-3′-hydroxy-1,4-dihydro-1′H,2H-spiro[isoquinoline-3,4′-piperidin]-1′-yl]methanone] | 0.216 nM | 72.4 nM | 4.42 nM |
